In brackets after ≈: the same amount, converted by molar mass.
How the values were obtained:
[1] = tested on: acetylation of histone H3 K9 and K14; assay: Histone posttranslational modifications by Western blot; format: cell-based, Doratomyces microsporus; conditions: VPA-treated D. microsporus cultures, 24, 48, 72 h
Description: Mycelia from the D. microsporus cultures were harvested after 24, 48, and 72 h by filtration and frozen in liquid nitrogen. Histones were extracted under acidic conditions as described by [Honda and Selker (2008)]. Samples were suspended in Laemmli’s SDS sample buffer and quantified with Pierce BCA Protein Assay (Thermo Scientific). Fifteen microgram of purified histones were separated on 15% SDS-PAGE gel and subsequently transferred to nitrocellulose membrane (GE Healthcare) by electroblotting. Histone H3 acetylation (H3Ac) was detected with primary antibody specific to H3Ac (Millipore, 06-599). As a loading control histone H3 C-terminus was detected with anti H3 C-terminus antibody (Abcam, 1791). The primary antibodies were identified with anti- rabbit (Sigma–Aldrich, A0545) horseradish peroxidase (HRP) conjugated secondary antibody. Chemiluminescence was detected with Clarity^TM ECL Western Substrate and ChemiDoc^TM XRS (Bio- Rad).

MRSA strain B335466 = assay: Ampicillin MIC alone and in combination; format: cell-based; conditions: Staphylococcus aureus
Description: (§1) Furthermore we studied the ability of PAA, cPM and cFP to increase antimicrobial activity of ampicillin against both ESBL and MRSA strains. The combination of cPM (100 mg/l) with ampicillin decreased the MIC value from 100 to 10 mg/l against the MRSA strain B335466 (Figure 5C).

MRSA strain B337919 = assay: Ampicillin MIC alone and in combination; format: cell-based; conditions: Staphylococcus aureus
Description: as §1

ESBL E. coli strain = assay: Ampicillin in combination; format: cell-based, Escherichia coli; conditions: ampicillin combined with PAA, cPM or cFP
Description: as §1

[2] = tested on: ESBL K. pneumoniae strain; assay: Ampicillin in combination; format: cell-based, Klebsiella pneumoniae; conditions: ampicillin combined with PAA, cPM or cFP
Description: as §1

S. aureus = assay: Determination of MIC; format: cell-based, Staphylococcus aureus; conditions: lowest concentration at which the inhibitory effect was detectable; S. aureus
Description: (§2) Minimal inhibitory concentrations (MICs) of purified compounds and commercially available standards were assessed against S. aureus, C. albicans, P. aeruginosa, K. pneumoniae, E. coli, ESBL K. pneumoniae, ESBL E. coli and the two MRSA strains (B337919 and B335466). Stock solutions of 5 × 10^6 μg/l of p-hydroxybenzaldehyde, and phenyllactic acid were prepared using water. Stock solutions of 1 × 10^8 μg/l indole-3-carboxylic acid, PAA and indole-3-acetic acid were prepared using methanol and diluted with water (working solution of 5 × 10^6 μg/l). Stocks of 1 × 10^6 μg/l of cFP and cPM were dissolved in water. […] Methanol and water were used as control.

[3] = tested on: MRSA Staphylococcus (S.) aureus B335466; assay: Determination of MIC; format: cell-based; conditions: lowest concentration at which the inhibitory effect was detectable; MRSA 335
Description: as §2

[4] = tested on: MRSA Staphylococcus (S.) aureus B337919; assay: Determination of MIC; format: cell-based; conditions: lowest concentration at which the inhibitory effect was detectable; MRSA 337
Description: as §2

P. aeruginosa = assay: Determination of MIC; format: cell-based, Pseudomonas aeruginosa; conditions: lowest concentration at which the inhibitory effect was detectable
Description: as §2

C. albicans = assay: Determination of MIC; format: cell-based, Candida albicans; conditions: lowest concentration at which the inhibitory effect was detectable; C. albicans
Description: as §2

E. coli = assay: Determination of MIC; format: cell-based, Escherichia coli; conditions: lowest concentration at which the inhibitory effect was detectable; E. coli
Description: as §2

ESBL E. coli = assay: Determination of MIC; format: cell-based, Escherichia coli; conditions: lowest concentration at which the inhibitory effect was detectable; ESBL E. coli
Description: as §2

ESBL K. pneumoniae = assay: Determination of MIC; format: cell-based, Klebsiella pneumoniae; conditions: lowest concentration at which the inhibitory effect was detectable; ESBL K. pneumoniae
Description: as §2

K. pneumoniae = assay: Determination of MIC; format: cell-based, Klebsiella pneumoniae; conditions: lowest concentration at which the inhibitory effect was detectable; K. pneumoniae
Description: as §2

[5] = tested on: human hepatocytic (HepG2) cells; assay: Cytotoxicity assay, lactate dehydrogenase release; format: cell-based; conditions: compound 2mg/ml, 24 h, LDH
Description: (§3) Cytotoxicity of the fungal extract and the identified compounds was determined measuring lactate dehydrogenase release using human intestinal epithelial (Caco2) and human hepatocytic (HepG2) cells. […] Cells were seeded into 96-well plates (5 × 10^4 cells per well) and incubated until a confluent cell layer had developed. After discarding of the media cells were incubated with 50 μl of media and 50 μl of fungal extract or compound (final concentration: PAA 2 × 10^6 μg/l, 4FP 2 × 10^6 μg/l, ICA 2 × 10^6 μg/l, IAA 2 × 10^5 μg/l, PLA 2 × 10^6 μg/l, cPM 2 × 10^6μg/l and cFP 2 × 10^6 μg/l) for 24 h at 37°C. […] LDH release was measured according to the manufacturer’s protocol (Sigma–Aldrich, USA).

[6] = tested on: human intestinal epithelial (Caco2) cells; assay: Cytotoxicity assay, lactate dehydrogenase release; format: cell-based; conditions: compound 2mg/ml, 24 h, LDH
Description: as §3

Caco2 cells = assay: XTT assay, metabolic active cells; format: cell-based, human; conditions: compound 2mg/ml, XTT
Description: (§4) In parallel the % of metabolic cells was measured using the XTT [2,3-Bis-(2-methoxy-4-nitro-5-sulfophenyl)-2H-tetra zolium-5-carboxanilide] assay (Thermo Scientific). Briefly, after treatment with the fungal extract or the different compounds cells were incubated with XTT and phenanzine methosulfate (Thermo Scientific) for 2 h. Absorbance was measured at 450 nm and % of metabolic active cells was calculated versus the control sample (media). As controls we incubated the cells without fungal cultures or compound, and with VPA alone.

HepG2 cells = assay: XTT assay, metabolic active cells; format: cell-based, human; conditions: compound 2mg/ml
Description: as §4

Caco2 and HepG2 cells = format: cell-based; conditions: at the determined MIC concentrations; range over compounds and cell lines
Description: as §3

higher fungi = tested on: higher fungi; design: method as in Strom et al., 2002; conditions: ref Strom et al., 2002; cited from earlier work
[7] = tested on: Bacillus subtilis, S. aureus and Micrococcus luteus; design: method as in Jayatilake et al., 1996; Thomas et al., 2010; conditions: ref Jayatilake et al., 1996; Thomas et al., 2010; cited from earlier work
all tested organisms = assay: Determination of MIC, statements over all tested organisms; format: cell-based; conditions: against the tested microorganisms
Description: as §2

[8] = design: method as in Rodloff et al., 2008; conditions: ref Rodloff et al., 2008; cited from earlier work

Compound | Inhibitory concentration (S. aureus) | Inhibitory concentration [3] | Inhibitory concentration [4] | Inhibitory concentration (P. aeruginosa) | Inhibitory concentration (C. albicans) | Inhibitory concentration (E. coli) | Inhibitory concentration (ESBL E. coli) | Inhibitory concentration (ESBL K. pneumoniae) | Inhibitory concentration (K. pneumoniae) | % of living HepG2 cells [5] | % of living Caco2 cells [6] | % of metabolic active Caco2 cells (Caco2 cells) | % of metabolic active HepG2 cells (HepG2 cells) | dead cells (Caco2 and HepG2 cells) | antimicrobial activity [7] | accepted MIC values for antibiotics in clinical use [8] | other results
CCCC(CCC)C(=O)O [VPA, valproic acid] |  |  |  |  |  |  |  |  |  |  |  |  |  |  |  |  | acetylation of the N-terminal lysines of histone 3 compared to the untreated control culture [1]: could not detect any significant increase in acetylation
CC1(C)S[C@@H]2[C@H](NC(=O)[C@H](N)c3ccccc3)C(=O)N2[C@H]1C(=O)O [ampicillin] |  |  |  |  |  |  |  |  |  |  |  |  |  |  |  |  | MIC (MRSA strain B335466; ampicillin alone): 100 mg/L; MIC (MRSA strain B335466; combined with PAA (1 g/l)): 50 mg/L; MIC (MRSA strain B335466; combined with cPM (100 mg/l)): 10 mg/L; MIC (MRSA strain B337919; ampicillin alone): 100 mg/L; MIC (MRSA strain B337919; combined with cPM (2 g/l)): 50 mg/L; synergistic or additive effect (ESBL E. coli strain): No synergistic or additive effect; synergistic or additive effect [2]: No synergistic or additive effect
O=C1NC(Cc2ccccc2)C(=O)N2CCCC12 [cFP, cyclo-(L-phenylalanine-L-proline)] | 2 g/L | 2 g/L | 2 g/L | 5 g/L | 2.5 g/L | 5 g/L | 5 g/L | 3 g/L | 3 g/L | 5.11% | 4.28% | 106.66% | 116.63% | 3.99–8.61% | no antimicrobial activity |  | MIC (higher fungi): 20000 mg/L (≈ 81.9 mM)
CSCCC1NC(=O)C2CCCN2C1=O [cPM, cyclo-(L-proline-L-methionine)] | 2.5 g/L | 2.5 g/L | 2.5 g/L | 5 g/L | 5 g/L | 5 g/L | 5 g/L | 5 g/L | 5 g/L | 3.99% | 4.77% | 99.18% | 107.47% | 3.99–8.61% | no antimicrobial activity |  | growth inhibitory activity (all tested organisms): 2 g/L
C[C@H]1COc2c(N3CCN(C)CC3)c(F)cc3c(=O)c(C(=O)O)cn1c23 [levofloxacin] |  |  |  |  |  |  |  |  |  |  |  |  |  |  |  | 0.003 mg/L | 
co-trimoxazole |  |  |  |  |  |  |  |  |  |  |  |  |  |  |  | 100 mg/L | 

Reference: paper PMC4829596 (Frontiers in Microbiology, 2016)
